Values quoted from earlier work in patent publication US20230165895A1, “COMPOSITIONS AND METHODS FOR EYE HEAL TH COMPRISING AREDS AND VITAMIN B COMPLEX” (BAUSCH + LOMB IRELAND LIMITED, priority 2020, published 2023).

Conditions: no test, species or source described; stated next to the RDA

In the case of Cc1c(C)c2c(c(C)c1O)CC[C@@](C)(CCC[C@H](C)CCC[C@H](C)CCCC(C)C)O2 [vitamin E, alpha tocopherol], the “levels at which no adverse effects have been observed” value is listed as no more than 800.0 mg.
